As a reminder, the inhibition is the drop in the measured response relative to a control, in per cent. Higher therefore signals a strong effect. What is called Ki is a measure of affinity in units of concentration, obtained from inhibition or displacement.

Experiment [1] deals with 5-hydroxytryptamine receptor 1B (Homo sapiens, UniProt P28222). Briefly: Inhibition of 5-HT1B receptor (unknown origin) at 10 uM by PDSP assay relative to control.
Experiment [2] concerns the target 5-hydroxytryptamine receptor 7 (Homo sapiens, UniProt P34969). Briefly: Inhibition of 5-HT7 receptor (unknown origin) at 10 uM by PDSP assay relative to control.
The target of a further experiment is Histamine H4 receptor (Homo sapiens, UniProt Q9H3N8). Briefly: Inhibition of histamine H4 receptor (unknown origin) at 10 uM by PDSP assay relative to control.
In the next experiment the target is Histamine H3 receptor (Homo sapiens, UniProt Q9Y5N1). Briefly: Inhibition of histamine H3 receptor (unknown origin) at 10 uM by PDSP assay relative to control.
Experiment [3] addresses Sodium-dependent noradrenaline transporter (Homo sapiens, UniProt P23975). Briefly: Displacement of [3H]-nisoxetine from human NET expressed in HEK cell membranes at 10 uM relative to control. Particulars: HEK293.
In experiment [4] the target is D(1A) dopamine receptor (Homo sapiens) (UniProt P21728). Briefly: Inhibition of dopamine D1 receptor (unknown origin) at 10 uM by PDSP assay relative to control.
Experiment [5] concerns the target 5-hydroxytryptamine receptor 5A (Homo sapiens, UniProt P47898). Briefly: Inhibition of 5-HT5A receptor (unknown origin) at 10 uM by PDSP assay relative to control.
Experiment [6] deals with T1, D(4) dopamine receptor (Homo sapiens) (UniProt P21917).
T1 sequence (whole entry): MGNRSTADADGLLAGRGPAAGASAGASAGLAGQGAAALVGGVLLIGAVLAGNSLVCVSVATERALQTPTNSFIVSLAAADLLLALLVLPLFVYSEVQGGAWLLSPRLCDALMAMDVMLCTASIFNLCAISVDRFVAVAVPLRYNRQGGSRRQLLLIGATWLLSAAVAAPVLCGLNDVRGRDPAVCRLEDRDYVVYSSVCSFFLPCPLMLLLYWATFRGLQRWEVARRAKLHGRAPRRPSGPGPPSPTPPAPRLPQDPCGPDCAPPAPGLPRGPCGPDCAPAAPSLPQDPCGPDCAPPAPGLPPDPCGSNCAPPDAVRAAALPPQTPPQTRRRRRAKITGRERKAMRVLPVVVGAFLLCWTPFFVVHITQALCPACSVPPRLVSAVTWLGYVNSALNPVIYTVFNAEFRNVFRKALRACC
Briefly: Inhibition of dopamine D4 receptor (unknown origin) at 10 uM by PDSP assay relative to control.

Experiment [7] addresses 5-hydroxytryptamine receptor 2B (Homo sapiens, UniProt P41595). Kind of experiment: Inhibition of 5-HT2B receptor (unknown origin) at 10 uM by PDSP assay relative to control.
The target of experiment [8] is Beta-3 adrenergic receptor (Homo sapiens) (UniProt P13945). Briefly: Inhibition of adrenergic beta3 receptor (unknown origin) at 10 uM by PDSP assay relative to control.
Experiment [9] concerns the target 5-hydroxytryptamine receptor 6 (Homo sapiens, UniProt P50406). Briefly: Inhibition of 5-HT6 receptor (unknown origin) at 10 uM by PDSP assay relative to control.
Experiment [10] concerns the target Sigma non-opioid intracellular receptor 1 (Rattus norvegicus, UniProt Q9R0C9). Kind of experiment: Displacement of [3H](+)-pentazocine from sigma-1 receptor in rat brain homogenates. It counts as tissue-based.
The target of experiment [11] is T2, 5-hydroxytryptamine receptor 3A (Homo sapiens) (UniProt P46098).
T2 sequence (whole entry): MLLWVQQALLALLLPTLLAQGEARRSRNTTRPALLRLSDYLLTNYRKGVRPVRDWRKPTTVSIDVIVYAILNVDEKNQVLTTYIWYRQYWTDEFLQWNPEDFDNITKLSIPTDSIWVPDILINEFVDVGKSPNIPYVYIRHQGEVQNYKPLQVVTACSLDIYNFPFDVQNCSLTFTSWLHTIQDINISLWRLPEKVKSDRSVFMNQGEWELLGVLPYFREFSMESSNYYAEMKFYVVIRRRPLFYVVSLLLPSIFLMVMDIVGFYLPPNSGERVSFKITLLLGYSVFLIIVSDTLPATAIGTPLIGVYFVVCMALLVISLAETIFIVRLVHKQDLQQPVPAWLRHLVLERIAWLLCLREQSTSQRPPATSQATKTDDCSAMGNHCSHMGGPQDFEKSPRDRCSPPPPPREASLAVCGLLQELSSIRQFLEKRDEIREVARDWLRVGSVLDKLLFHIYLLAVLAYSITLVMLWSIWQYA
Briefly: Inhibition of 5-HT3 receptor (unknown origin) at 10 uM by PDSP assay relative to control.

For experiment [12], the target named is T3, 5-hydroxytryptamine receptor 2C (Homo sapiens) (UniProt P28335).
T3 sequence (whole entry): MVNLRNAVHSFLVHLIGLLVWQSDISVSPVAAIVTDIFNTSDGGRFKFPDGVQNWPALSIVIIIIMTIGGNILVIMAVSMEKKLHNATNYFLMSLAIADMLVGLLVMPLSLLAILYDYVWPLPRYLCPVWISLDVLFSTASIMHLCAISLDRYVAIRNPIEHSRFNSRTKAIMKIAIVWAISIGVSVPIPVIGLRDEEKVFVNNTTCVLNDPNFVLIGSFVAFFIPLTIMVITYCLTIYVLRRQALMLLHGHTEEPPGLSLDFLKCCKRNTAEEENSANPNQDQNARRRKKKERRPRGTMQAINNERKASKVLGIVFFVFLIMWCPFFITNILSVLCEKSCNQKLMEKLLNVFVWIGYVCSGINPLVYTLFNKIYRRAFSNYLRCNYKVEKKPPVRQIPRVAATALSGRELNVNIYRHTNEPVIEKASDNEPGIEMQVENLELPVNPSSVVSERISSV
Briefly: Inhibition of 5-HT2C receptor (unknown origin) at 10 uM by PDSP assay relative to control.

Experiment [13] deals with 5-hydroxytryptamine receptor 1E (Homo sapiens) (UniProt P28566). Kind of experiment: Inhibition of 5-HT1E receptor (unknown origin) at 10 uM by PDSP assay relative to control.
Chain of 5-hydroxytryptamine receptor 1E (Homo sapiens) (P28566 whole entry): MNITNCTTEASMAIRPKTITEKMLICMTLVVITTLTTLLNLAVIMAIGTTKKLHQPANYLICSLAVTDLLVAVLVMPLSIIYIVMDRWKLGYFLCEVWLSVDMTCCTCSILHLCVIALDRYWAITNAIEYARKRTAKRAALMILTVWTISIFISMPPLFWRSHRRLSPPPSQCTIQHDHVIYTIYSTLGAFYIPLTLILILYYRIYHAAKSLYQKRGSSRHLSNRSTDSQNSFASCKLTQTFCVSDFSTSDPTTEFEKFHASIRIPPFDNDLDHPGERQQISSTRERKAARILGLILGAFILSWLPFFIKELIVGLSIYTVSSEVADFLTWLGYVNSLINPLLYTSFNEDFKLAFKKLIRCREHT

Chain of 5-hydroxytryptamine receptor 1B (P28222 whole entry): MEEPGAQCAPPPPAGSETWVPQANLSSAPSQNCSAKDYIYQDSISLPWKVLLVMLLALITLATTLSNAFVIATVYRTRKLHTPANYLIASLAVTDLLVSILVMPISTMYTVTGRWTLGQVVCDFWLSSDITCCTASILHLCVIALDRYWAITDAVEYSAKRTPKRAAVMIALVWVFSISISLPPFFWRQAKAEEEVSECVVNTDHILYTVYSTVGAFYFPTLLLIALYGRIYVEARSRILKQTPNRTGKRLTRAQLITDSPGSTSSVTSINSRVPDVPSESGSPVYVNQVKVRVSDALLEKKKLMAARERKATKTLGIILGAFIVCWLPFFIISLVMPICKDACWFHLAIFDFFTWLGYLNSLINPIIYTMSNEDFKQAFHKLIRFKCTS
Chain of Sigma non-opioid intracellular receptor 1 (Q9R0C9 whole entry): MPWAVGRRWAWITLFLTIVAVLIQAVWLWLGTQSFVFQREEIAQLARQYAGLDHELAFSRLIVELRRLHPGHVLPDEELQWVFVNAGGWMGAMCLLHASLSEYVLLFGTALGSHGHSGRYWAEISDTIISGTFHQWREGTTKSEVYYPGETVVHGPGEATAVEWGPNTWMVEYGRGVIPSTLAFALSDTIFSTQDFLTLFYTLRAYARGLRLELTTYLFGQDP
Chain of 5-hydroxytryptamine receptor 7 (P34969 whole entry): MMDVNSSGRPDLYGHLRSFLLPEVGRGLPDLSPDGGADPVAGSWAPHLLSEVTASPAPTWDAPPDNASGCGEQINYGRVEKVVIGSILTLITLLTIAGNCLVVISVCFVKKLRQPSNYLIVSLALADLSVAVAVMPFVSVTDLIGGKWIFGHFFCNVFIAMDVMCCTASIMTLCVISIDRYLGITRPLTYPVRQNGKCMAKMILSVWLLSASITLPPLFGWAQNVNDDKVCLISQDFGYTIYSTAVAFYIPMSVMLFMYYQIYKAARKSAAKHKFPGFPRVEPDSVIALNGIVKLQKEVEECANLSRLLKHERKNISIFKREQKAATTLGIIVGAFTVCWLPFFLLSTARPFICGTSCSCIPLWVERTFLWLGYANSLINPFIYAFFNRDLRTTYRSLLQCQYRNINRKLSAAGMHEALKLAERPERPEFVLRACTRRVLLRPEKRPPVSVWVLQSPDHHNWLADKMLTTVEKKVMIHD
Chain of D(1A) dopamine receptor (Homo sapiens) (P21728 whole entry): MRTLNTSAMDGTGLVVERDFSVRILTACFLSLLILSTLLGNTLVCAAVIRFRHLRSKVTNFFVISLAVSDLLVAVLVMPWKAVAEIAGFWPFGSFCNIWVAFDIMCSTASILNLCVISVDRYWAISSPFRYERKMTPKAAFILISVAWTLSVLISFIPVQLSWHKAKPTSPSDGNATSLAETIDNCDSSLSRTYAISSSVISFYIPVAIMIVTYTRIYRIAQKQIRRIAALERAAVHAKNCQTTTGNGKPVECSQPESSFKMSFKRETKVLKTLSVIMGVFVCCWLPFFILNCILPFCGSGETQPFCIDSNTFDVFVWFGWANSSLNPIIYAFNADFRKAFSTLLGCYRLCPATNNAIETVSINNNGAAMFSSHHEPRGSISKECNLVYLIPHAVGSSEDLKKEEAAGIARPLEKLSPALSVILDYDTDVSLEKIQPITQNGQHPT
Chain of 5-hydroxytryptamine receptor 6 (P50406 whole entry): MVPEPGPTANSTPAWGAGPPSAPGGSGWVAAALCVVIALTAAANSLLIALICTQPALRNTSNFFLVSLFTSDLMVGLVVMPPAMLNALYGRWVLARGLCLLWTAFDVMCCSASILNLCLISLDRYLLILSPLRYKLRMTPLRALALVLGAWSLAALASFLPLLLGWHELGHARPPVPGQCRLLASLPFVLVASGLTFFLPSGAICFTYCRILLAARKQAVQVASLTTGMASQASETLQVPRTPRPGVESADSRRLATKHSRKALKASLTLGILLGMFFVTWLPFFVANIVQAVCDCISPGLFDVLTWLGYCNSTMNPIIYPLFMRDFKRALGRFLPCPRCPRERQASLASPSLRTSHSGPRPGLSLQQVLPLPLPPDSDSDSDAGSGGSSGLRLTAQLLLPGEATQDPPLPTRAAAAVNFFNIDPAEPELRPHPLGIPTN
Chain of 5-hydroxytryptamine receptor 2B (P41595 whole entry): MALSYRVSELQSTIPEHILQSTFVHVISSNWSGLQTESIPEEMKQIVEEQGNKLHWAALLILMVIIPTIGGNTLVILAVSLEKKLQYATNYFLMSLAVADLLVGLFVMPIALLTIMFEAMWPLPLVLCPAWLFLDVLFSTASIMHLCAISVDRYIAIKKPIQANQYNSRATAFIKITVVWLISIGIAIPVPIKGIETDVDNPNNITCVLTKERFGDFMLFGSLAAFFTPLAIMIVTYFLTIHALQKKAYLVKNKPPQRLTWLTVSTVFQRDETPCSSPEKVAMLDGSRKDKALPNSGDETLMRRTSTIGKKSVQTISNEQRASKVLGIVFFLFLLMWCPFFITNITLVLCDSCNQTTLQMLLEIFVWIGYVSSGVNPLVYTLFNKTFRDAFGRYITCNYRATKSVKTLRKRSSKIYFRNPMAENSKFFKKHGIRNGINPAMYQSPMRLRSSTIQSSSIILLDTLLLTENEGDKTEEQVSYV
Chain of Histamine H4 receptor (Q9H3N8 whole entry): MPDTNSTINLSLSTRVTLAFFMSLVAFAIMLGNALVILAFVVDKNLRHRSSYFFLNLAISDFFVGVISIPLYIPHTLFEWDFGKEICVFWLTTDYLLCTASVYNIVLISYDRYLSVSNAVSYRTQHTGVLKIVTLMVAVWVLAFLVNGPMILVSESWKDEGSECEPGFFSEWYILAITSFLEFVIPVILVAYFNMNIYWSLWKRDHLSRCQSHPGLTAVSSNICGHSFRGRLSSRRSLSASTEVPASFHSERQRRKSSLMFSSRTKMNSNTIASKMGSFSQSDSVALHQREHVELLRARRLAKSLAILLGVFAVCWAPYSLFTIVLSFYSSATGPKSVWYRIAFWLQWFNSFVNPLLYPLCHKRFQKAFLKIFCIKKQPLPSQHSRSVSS
Chain of Sodium-dependent noradrenaline transporter (P23975 whole entry): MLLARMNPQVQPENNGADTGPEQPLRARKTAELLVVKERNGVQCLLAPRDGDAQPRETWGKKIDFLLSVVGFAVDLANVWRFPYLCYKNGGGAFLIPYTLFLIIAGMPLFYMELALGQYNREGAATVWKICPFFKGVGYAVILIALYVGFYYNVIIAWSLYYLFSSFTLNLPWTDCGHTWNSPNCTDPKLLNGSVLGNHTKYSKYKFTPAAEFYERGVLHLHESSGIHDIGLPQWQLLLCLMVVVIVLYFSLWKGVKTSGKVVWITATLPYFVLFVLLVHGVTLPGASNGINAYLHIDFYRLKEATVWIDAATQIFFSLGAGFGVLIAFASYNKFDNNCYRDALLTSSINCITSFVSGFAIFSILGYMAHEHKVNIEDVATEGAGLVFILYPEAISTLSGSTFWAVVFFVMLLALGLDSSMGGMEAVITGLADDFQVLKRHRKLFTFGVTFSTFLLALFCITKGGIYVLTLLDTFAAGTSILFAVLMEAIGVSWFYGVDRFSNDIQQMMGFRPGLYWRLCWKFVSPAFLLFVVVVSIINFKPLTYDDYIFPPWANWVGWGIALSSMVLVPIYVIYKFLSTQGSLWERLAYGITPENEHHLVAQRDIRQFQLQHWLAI
Chain of 5-hydroxytryptamine receptor 5A (P47898 whole entry): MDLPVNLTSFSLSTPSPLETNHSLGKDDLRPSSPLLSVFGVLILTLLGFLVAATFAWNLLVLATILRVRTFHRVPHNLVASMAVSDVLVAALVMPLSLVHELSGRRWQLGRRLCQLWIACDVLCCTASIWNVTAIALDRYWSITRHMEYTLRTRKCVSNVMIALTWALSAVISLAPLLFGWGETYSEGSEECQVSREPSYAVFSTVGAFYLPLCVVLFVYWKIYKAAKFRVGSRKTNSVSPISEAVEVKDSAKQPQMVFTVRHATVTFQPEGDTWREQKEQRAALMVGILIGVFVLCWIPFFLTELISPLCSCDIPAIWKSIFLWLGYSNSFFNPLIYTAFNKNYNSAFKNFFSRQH
Chain of Histamine H3 receptor (Q9Y5N1 whole entry): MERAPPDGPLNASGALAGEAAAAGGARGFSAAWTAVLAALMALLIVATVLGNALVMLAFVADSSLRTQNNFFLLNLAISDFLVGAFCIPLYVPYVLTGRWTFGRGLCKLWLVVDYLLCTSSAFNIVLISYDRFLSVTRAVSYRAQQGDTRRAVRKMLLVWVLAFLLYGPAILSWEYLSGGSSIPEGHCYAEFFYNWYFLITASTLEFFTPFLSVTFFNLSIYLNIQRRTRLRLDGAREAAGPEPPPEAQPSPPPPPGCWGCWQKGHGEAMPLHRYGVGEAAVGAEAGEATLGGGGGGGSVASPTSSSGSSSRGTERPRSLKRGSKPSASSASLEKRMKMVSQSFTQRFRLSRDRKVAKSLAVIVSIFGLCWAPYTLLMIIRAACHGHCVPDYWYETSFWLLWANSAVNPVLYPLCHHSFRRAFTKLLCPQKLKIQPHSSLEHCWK

In the case of `CN(CCc1ccccn1)[C@H]1C2C3CC4C5C3CC2C5C41` (stereo not given in full), the inhibition (in experiment [1]; in experiment [2]; at Histamine H4 receptor; against Histamine H3 receptor; in [3]; in experiment [4]) was less than 50% in each case. For the same compound, the inhibition in experiment [5], in experiment [6], in experiment [7], in experiment [8], in experiment [9] and in experiment [11] was less than 50% throughout. Further, the inhibition in experiment [12] and in experiment [13] was less than 50% each time. Besides, in experiment [10], affinity was put at a Ki of 0.448 µM.
`C1CCC(CN[C@H]2C3C4CC5C6C4CC3C6C52)CC1` (stereo not given in full): the inhibition (in experiment [1]; in experiment [2]; at Histamine H4 receptor; against Histamine H3 receptor; in experiment [3]; in [4]) was less than 50% throughout. Also, the inhibition in [5], in [6], in experiment [7], in [8], in experiment [9] and in experiment [11] was less than 50% throughout. Moreover, the inhibition in [12] and in experiment [13] was less than 50% each time. Moreover, in [10], the Ki is 0.004 µM.
Take `COc1ccc(CN(C)[C@H]2C3C4CC5C6C4CC3C6C52)cc1OC` (stereo not given in full): the inhibition (in experiment [1]; in experiment [2]; at Histamine H4 receptor; at Histamine H3 receptor; in [3]; in [4]) was less than 50% in each case. The inhibition in [5], in experiment [6], in [7], in [8], in experiment [9] and in experiment [11] was less than 50% in each case. In addition, the inhibition in experiment [12] and in experiment [13] was less than 50% in each case. The Ki in experiment [10] worked out at 0.255 µM.
Take `CN(Cc1ccccc1)[C@H]1C2C3CC4C2C(=O)C2C4C3C21` (stereo not given in full): the inhibition (in experiment [1]; in experiment [2]; on Histamine H4 receptor; against Histamine H3 receptor; in experiment [3]; in experiment [4]) was less than 50% each time. Further, the inhibition in experiment [5], in experiment [6], in [7], in [8], in [9] and in [11] was less than 50% each time. In addition, the inhibition in experiment [12] and in experiment [13] was less than 50% each time. In experiment [10], this compound displayed a Ki of 0.568 µM.
With `CN(CCc1ccccn1)[C@H]1C2C3CC4C2C(=O)C2C4C3C21` (stereo not given in full), the inhibition (in experiment [1]; in [2]; at Histamine H4 receptor; on Histamine H3 receptor; in experiment [3]; in experiment [4]) was less than 50% in each case. The inhibition in [5], in [6], in experiment [7], in experiment [8], in [9] and in [11] was less than 50% throughout. For the same compound, the inhibition in [12] and in experiment [13] was less than 50% each time. The compound also registered a Ki in [10] of more than 10 µM.
Take `CN(CCCc1cccc(F)c1)[C@H]1C2C3CC4C5C3CC2C5C41` (stereo not given in full): the inhibition (in experiment [1]; in experiment [2]; at Histamine H4 receptor; against Histamine H3 receptor; in [3]; in experiment [4]) was less than 50% throughout. For the same compound, the inhibition in [5], in experiment [6], in [7], in [8], in [9] and in [11] was less than 50% throughout. For the same compound, the inhibition in [12] and in experiment [13] was less than 50% throughout. The same compound gave a Ki in [10] of 0.429 µM.

Values taken from ChEMBL document CHEMBL2429832, “N-substituted 8-aminopentacyclo[5.4.0.0(2,6).0(3,10).0(5,9)]undecanes as σ receptor ligands with potential neuroprotective effects” (Bioorg Med Chem, 2013).
